Consider 2 molecules from US3973006A, “Peptide enzyme inhibitors of angiotensin I” (E. R. Squibb & Sons, Inc., priority 1975, dated 1976).

The test system of test [1] is angiotensin I induced pressor response. In words: Inhibition of angiotensin I induced pressor response in anesthetized rats. Type of test: in vivo. Conditions: intravenous; atropinized anesthetized male rats infused with pentolinium; 0.10 μg/kg angiotensin I.
The target of test [2] is angiotensin-converting enzyme (Homo sapiens, UniProt P12821). In words: Inhibition of angiotensin-converting enzyme (conversion of angiotensin I into angiotensin II), I50 determination. The test is classed as biochemical. Conditions: for IC50: 0.3 mM angiotensin I, 100 mM potassium phosphate buffer pH 7.5, 30 mM NaCl, 37°, read-out: I50 (concentration of peptide producing a 50% inhibition of angiotensin-converting enzyme) (converted). How it is done:
For determination of I50 values (concentration of peptide expressed in micrograms/ml. producing a 50% inhibition of angiotensin-converting enzyme), varying concentrations of the peptide of Example 19 are added to 13 × 100 mm. assay tubes containing a final volume of 0.25 ml. containing 100 mM. potassium phosphate buffer, pH 7.5, 30 mM. NaCl, and 0.3 mM. angiotensin I. Enzymatic reactions are initiated by addition of enzyme and incubation is carried out at 37°. The concentration of the peptide of Example 19 of the present invention which inhibits conversion of 50% of angiotensin I into angiotensin II is found to be 7 μg./ml as opposed to an I50 (μg/ml) of 0.9 for the parent peptide Pyr-Trp-Pro-Arg-Pro-Gln-Ile-Pro-Pro.

Molecules are shown by their SMILES.

Sequence of angiotensin-converting enzyme (P12821 30-1306, species assumed): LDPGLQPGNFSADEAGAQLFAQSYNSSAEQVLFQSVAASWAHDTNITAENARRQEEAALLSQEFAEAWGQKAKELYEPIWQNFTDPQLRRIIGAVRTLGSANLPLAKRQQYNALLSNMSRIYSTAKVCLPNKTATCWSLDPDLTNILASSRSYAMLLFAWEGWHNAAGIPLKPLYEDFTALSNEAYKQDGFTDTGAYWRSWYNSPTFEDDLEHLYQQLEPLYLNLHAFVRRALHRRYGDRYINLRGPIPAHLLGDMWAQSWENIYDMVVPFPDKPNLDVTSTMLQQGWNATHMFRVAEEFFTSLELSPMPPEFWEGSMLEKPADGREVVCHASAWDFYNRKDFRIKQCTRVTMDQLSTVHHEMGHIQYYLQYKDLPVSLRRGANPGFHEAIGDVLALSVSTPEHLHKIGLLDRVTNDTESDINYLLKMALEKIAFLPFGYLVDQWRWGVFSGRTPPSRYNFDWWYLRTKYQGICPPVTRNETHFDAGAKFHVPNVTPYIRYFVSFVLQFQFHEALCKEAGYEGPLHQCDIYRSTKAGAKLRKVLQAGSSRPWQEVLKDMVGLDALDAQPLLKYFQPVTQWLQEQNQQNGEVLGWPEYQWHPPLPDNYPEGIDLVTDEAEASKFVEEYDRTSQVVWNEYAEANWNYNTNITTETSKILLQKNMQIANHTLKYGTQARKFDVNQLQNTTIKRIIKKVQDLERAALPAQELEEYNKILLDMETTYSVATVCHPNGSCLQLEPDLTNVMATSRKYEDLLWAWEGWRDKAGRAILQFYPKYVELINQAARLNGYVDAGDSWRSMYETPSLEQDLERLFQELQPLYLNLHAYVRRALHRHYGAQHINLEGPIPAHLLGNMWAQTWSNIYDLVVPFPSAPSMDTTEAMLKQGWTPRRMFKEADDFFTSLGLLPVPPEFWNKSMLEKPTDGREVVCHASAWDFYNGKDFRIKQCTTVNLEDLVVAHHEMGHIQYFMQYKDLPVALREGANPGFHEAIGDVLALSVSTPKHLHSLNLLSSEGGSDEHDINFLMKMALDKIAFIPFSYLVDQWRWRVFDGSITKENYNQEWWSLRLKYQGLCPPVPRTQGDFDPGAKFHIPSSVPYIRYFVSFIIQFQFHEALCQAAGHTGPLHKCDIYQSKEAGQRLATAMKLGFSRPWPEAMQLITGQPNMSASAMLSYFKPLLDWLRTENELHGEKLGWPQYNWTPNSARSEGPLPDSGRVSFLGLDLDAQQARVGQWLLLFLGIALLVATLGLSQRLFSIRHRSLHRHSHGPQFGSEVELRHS

On to `CC[C@H](C)[C@H](NC(=O)[C@H](CCC(N)=O)NC(=O)[C@@H]1CCCN1C(=O)[C@H](CCCNC(=N)N)NC(=O)[C@@H]1CCCN1C(=O)[C@H](Cc1c[nH]c2ccccc12)NC(=O)[C@@H]1CCC(=O)N1)C(=O)N1CCC[C@H]1C(=O)N1CCC[C@H]1C(=O)OC` [Example 19, Pyroglutamyl-tryptophyl-prolyl-arginyl-prolyl-glutaminyl-isoleucyl-prolyl-proline, methyl ester], for which the “in vivo activity (degree of inhibition of angiotensin I induced pressor response)” value in test [1] is listed as “roughly equivalent to that of the parent Control peptide”. The IC50 in test [2] was 6.28 µM. Besides, in test [2] (in vitro), the “in vitro potency in inhibiting conversion of angiotensin I into angiotensin II, compared with parent control peptide” value is on record as “substantially less potent than the parent control peptide”.
In the case of `CC[C@H](C)[C@H](NC(=O)[C@H](CCC(N)=O)NC(=O)[C@@H]1CCCN1C(=O)[C@H](CCCNC(=N)N)NC(=O)[C@@H]1CCCN1C(=O)[C@H](Cc1c[nH]c2ccccc12)NC(=O)[C@@H]1CCC(=O)N1)C(=O)N1CCC[C@H]1C(=O)N1CCC[C@H]1C(=O)O` [Pyr-Trp-Pro-Arg-Pro-Gln-Ile-Pro-Pro, Pyroglutamyl-tryptophyl-prolyl-arginyl-prolyl-glutaminyl-isoleucyl-prolyl-proline, reference compound], the IC50 in test [2] was 0.817 µM.
